In article PMC3996155, “The crystal structure of fibroblast growth factor 18 (FGF18)” (Protein & Cell, 2014):

Biological target: T1, FGF18 (Homo sapiens, UniProt O76093)
T1 construct: residues 50-194 of the 207-residue precursor (signal peptide 1-27 absent), expressed in Escherichia coli, purified
T1 sequence (O76093 50-194): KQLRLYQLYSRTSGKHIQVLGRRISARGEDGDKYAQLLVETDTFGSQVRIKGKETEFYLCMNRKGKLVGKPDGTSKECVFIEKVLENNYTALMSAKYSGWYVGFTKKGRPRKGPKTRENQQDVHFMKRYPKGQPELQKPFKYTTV
Assay: isothermal titration calorimetry
Type: binding
Details: size-defined heparin oligosaccharide, sulfation pattern not stated; error exceeds the value; read-out: affinity

Kd: 2.2 µM
Substance: heparin oligosaccharides of 6 dp
